Test results reported in patent US10308686B2, “Gamma-AApeptides with potent and broad-spectrum antimicrobial activity” (priority 2012, dated 2019).
Values after ≈ are worked out from the molar mass of the structure shown. Read-outs that look alike come from different tables or passages of the source.

Tests used:
[1] = test system: human red blood cells (hRBC's); assay: Hemolysis assay; type: cell-based; settings: for Hemolysis HC10 / Hemolysis HC50: red cells of human
Procedure: Freshly drawn human red blood cells (hRBC's) with additive K2 EDTA (spray-dried) were washed with PBS buffer several times and centrifuged at 1000 g for 10 min until a clear supernatant was observed. The hRBC's were resuspended in 1×PBS to get a 5% v/v suspension. Two-fold serial dilutions of γ-AApeptides dissolved in 1×PBS from 250 μg/ml through 1.6 μg/ml were added to a sterile 96-well plate to make up a total volume of 50 μL in each well. Then 50 μL of 5% v/v hRBC solution was added to make up a total volume of 100 μL in each well. The 0% hemolysis point and 100% hemolysis point were determined in 1×PBS and 0.2% Triton-X-100, respectively (Patch et al., 2003). The plate was then incubated at 37° C. for 1 h and centrifuged at 3500 rpm for 10 min. The supernatant (30 μL) was diluted with 100 μL of 1×PBS and absorption was detected by measuring the optical density at 360 nm by Biotek Synergy HT microtiter plate reader. % hemolysis was determined by the following equation: % hemolysis=(Abssample−AbsPBS)/(AbsTriton−AbsPBS)×100 H50 is the concentration of γ-AApeptide amphiphiles at which 50% hemolysis was observed. The highest concentration tested in the hemolytic assay was 500 μg/ml. 7. Fluorescence Microscopy
The sequences shown in FIG. 12 were also evaluated via hemolytic assays. Freshly drawn human red blood cells (hRBC's) with additive K2 EDTA (spray-dried) were washed with PBS buffer several times and centrifuged at 1000 g for 10 min until a clear supernatant was observed. The hRBC's were resuspended in 1×PBS to get a 5% v/v suspension. Two-fold serial dilutions of lipidated γ-AApeptides dissolved in 1×PBS from 1 mg/ml through 6.3 μg/ml were added to sterile 96-well plates to make up a total volume of 50 μL in each well. Then 50 μL of 5% v/v hRBC solution was added to make up a total volume of 100 μL in each well. The 0% hemolysis point and 100% hemolysis point were determined in 1×PBS and 0.2% Triton-X-100, respectively (Patch et al., 2003). The plate was then incubated at 37° C. for 1 h and centrifuged at 3500 rpm for 10 min. The supernatant (30 μL) was diluted with 100 μL of 1×PBS and absorption was detected by measuring the optical density at 360 nm with a Biotek Synergy HT microtiter plate reader. % hemolysis was determined by the following equation: % hemolysis=(Abs sample−Abs PBS)/(Abs Triton−Abs PBS)×100

[2] = test system: vancomycin-resistant E. faecalis (ATCC 700802); settings: for MIC, Gram positive E. faecalis: Table 7; for MIC, E. faecalis (vancomycin-resistant): Table 3
[3] = test system: E. coli (JM109)
[4] = test system: multi-drug resistant P. aeruginosa ATCC 27853
[5] = test system: C. albicans (ATCC 10231); settings: ATCC 10231
[6] = test system: multi-drug resistant S. epidermidis (RP62A); settings: for MIC, Gram positive S. epidermidis: Table 7; for MIC, S. epidermidis (multi-drug resistant): Table 3
[7] = test system: K. pneumoniae (ATCC 13383)
[8] = test system: B. subtilis (BR151)
[9] = test system: methicillin-resistant S. aureus (ATCC 33592); settings: for MIC, Gram positive S. aureus: Table 7; for MIC, S. aureus (methicillin-resistant): Table 3

CCCCCCCC/C=C\CCCCCCCC(=O)N[C@@H](CCCCN)CN(CC(N)=O)C(=O)CCCN [Sequence 10]
Hemolysis HC10 [1]: 40 µg/mL
Hemolysis HC50 [1]: 100 µg/mL
MIC, Gram positive E. faecalis [2]: 2.5 µg/mL (≈ 4.65 µM)
MIC, Gram negative E. coli [3]: 2.5 µg/mL (≈ 4.65 µM)
MIC, Gram negative P. aeruginosa ([4]; ATCC 27853): 3 µg/mL (≈ 5.58 µM)
MIC, Fungi, C. albicans [5]: 2 µg/mL (≈ 3.72 µM)
MIC, Gram positive S. epidermidis [6]: 2 µg/mL (≈ 3.72 µM)
MIC, Gram negative K. pneumoniae [7]: 35 µg/mL (≈ 65.1 µM)
MIC, Gram positive B. subtilis [8]: 2 µg/mL (≈ 3.72 µM)
MIC, Gram positive S. aureus [9]: 4 µg/mL (≈ 7.44 µM)

CCCCCCCC/C=C\CCCCCCCC(=O)N[C@@H](CCCCN)CN(CC(N)=O)C(=O)CCCN [γAA7]
Hemolysis (H50) [1]: >500 µg/mL
MIC, E. faecalis (vancomycin-resistant) [2]: 2.5 µg/mL (≈ 4.65 µM)
MIC, E. coli [3]: 2.5 µg/mL (≈ 4.65 µM)
MIC, P. aeruginosa ([4]; ATCC 27853): 2.5 µg/mL (≈ 4.65 µM)
MIC, Fungi C. albicans [5]: 1.5 µg/mL (≈ 2.79 µM)
MIC, S. epidermidis (multi-drug resistant) [6]: 1 µg/mL (≈ 1.86 µM)
MIC, K. pneumoniae (causing pneumonia) [7]: 50 µg/mL (≈ 93 µM)
MIC, B. subtilis [8]: 2 µg/mL (≈ 3.72 µM)
MIC, S. aureus (methicillin-resistant) [9]: 5 µg/mL (≈ 9.3 µM)

CCCCCCCC/C=C\CCCCCCCC(=O)N[C@@H](C)CN(CC(=O)N[C@@H](C)CN(CC(=O)N[C@@H](CC(C)C)CN(CC(=O)N[C@@H](CC(C)C)CN(CC(=O)N[C@@H](CC(C)C)CN(CC(N)=O)C(=O)CCCN)C(=O)CCCN)C(=O)CCCN)C(C)=O)C(C)=O [Sequence 13]
Hemolysis HC10 [1]: 100 µg/mL
Hemolysis HC50 [1]: > 500 µg/mL
MIC, Gram positive E. faecalis [2]: 4 µg/mL (≈ 3.04 µM)
MIC, Gram negative E. coli [3]: 3 µg/mL (≈ 2.28 µM)
MIC, Gram negative P. aeruginosa ([4]; ATCC 27853): 3 µg/mL (≈ 2.28 µM)
MIC, Fungi, C. albicans [5]: 3 µg/mL (≈ 2.28 µM)
MIC, Gram positive S. epidermidis [6]: 3 µg/mL (≈ 2.28 µM)
MIC, Gram negative K. pneumoniae [7]: 3 µg/mL (≈ 2.28 µM)
MIC, Gram positive B. subtilis [8]: 3 µg/mL (≈ 2.28 µM)
MIC, Gram positive S. aureus [9]: 3 µg/mL (≈ 2.28 µM)

CCCCCCCCCCCCCCCC(=O)N[C@@H](C)CN(CC(=O)N[C@@H](C)CN(CC(=O)N[C@@H](CC(C)C)CN(CC(=O)N[C@@H](CC(C)C)CN(CC(=O)N[C@@H](CC(C)C)CN(CC(N)=O)C(=O)CCCN)C(=O)CCCN)C(=O)CCCN)C(C)=O)C(C)=O [Sequence 6]
Hemolysis HC10 [1]: 60 µg/mL
Hemolysis HC50 [1]: > 500 µg/mL
MIC, Gram positive E. faecalis [2]: 5 µg/mL (≈ 3.87 µM)
MIC, Gram negative E. coli [3]: 2.5 µg/mL (≈ 1.94 µM)
MIC, Gram negative P. aeruginosa ([4]; ATCC 27853): 5 µg/mL (≈ 3.87 µM)
MIC, Gram positive S. epidermidis [6]: 4 µg/mL (≈ 3.1 µM)
MIC, Gram negative K. pneumoniae [7]: 5 µg/mL (≈ 3.87 µM)
MIC, Gram positive B. subtilis [8]: 2.5 µg/mL (≈ 1.94 µM)
MIC, Gram positive S. aureus [9]: 4 µg/mL (≈ 3.1 µM)

CC(C)CCC(=O)N1CC(=O)N[C@@H](Cc2ccccc2)CN(C(=O)CCC(C)C)CC(=O)N[C@@H](CCCCN)CN(C(=O)CCc2ccccc2)CC(=O)N[C@@H](CCCCN)CN(C(=O)CCc2ccccc2)CC(=O)N[C@@H](CCCCN)CN(C(=O)CCc2ccccc2)CC(=O)N[C@@H](CCCCN)CN(C(=O)CCc2ccccc2)CC(=O)N[C@@H](Cc2ccccc2)CN(CC(N)=O)C(=O)CCC(=O)N[C@@H](Cc2ccccc2)C1 [γAA5]
Hemolysis (H50) [1]: 100 µg/mL
MIC, E. faecalis (vancomycin-resistant) [2]: 5 µg/mL (≈ 2.4 µM)
MIC, E. coli [3]: 12.5 to 25 µg/mL
MIC, P. aeruginosa ([4]; ATCC 27853): 8 µg/mL (≈ 3.85 µM)
MIC, Fungi C. albicans [5]: 2 µg/mL (≈ 0.962 µM)
MIC, S. epidermidis (multi-drug resistant) [6]: 2 µg/mL (≈ 0.962 µM)
MIC, K. pneumoniae (causing pneumonia) [7]: 8 µg/mL (≈ 3.85 µM)
MIC, B. subtilis [8]: 1 µg/mL (≈ 0.481 µM)
MIC, S. aureus (methicillin-resistant) [9]: 1 µg/mL (≈ 0.481 µM)

CC(C)CCC(=O)N1CC(=O)N[C@@H](Cc2ccccc2)CN(C(=O)CCC(C)C)CC(=O)N[C@@H](Cc2ccccc2)CN(C(=O)CCC(C)C)CC(=O)N[C@@H](CCCCN)CN(C(=O)CCc2ccccc2)CC(=O)N[C@@H](CCCCN)CN(C(=O)CCc2ccccc2)CC(=O)N[C@@H](CCCCN)CN(C(=O)CCc2ccccc2)CC(=O)N[C@@H](Cc2ccccc2)CN(CC(N)=O)C(=O)CCC(=O)N[C@@H](Cc2ccccc2)C1 [γAA6]
Hemolysis (H50) [1]: 300 µg/mL
MIC, E. faecalis (vancomycin-resistant) [2]: 5 µg/mL (≈ 2.42 µM)
MIC, E. coli [3]: 25 to 50 µg/mL
MIC, P. aeruginosa ([4]; Table 3): 10 µg/mL (≈ 4.84 µM)
MIC, Fungi C. albicans [5]: 4 µg/mL (≈ 1.94 µM)
MIC, S. epidermidis (multi-drug resistant) [6]: 2 µg/mL (≈ 0.969 µM)
MIC, K. pneumoniae (causing pneumonia) [7]: 10 µg/mL (≈ 4.84 µM)
MIC, B. subtilis [8]: 2 µg/mL (≈ 0.969 µM)
MIC, S. aureus (methicillin-resistant) [9]: 3 µg/mL (≈ 1.45 µM)

CCCCCCCC/C=C\CCCCCCCC(=O)N[C@@H](CCCCN)C(=O)N[C@@H](CCCCN)CN(CC(N)=O)C(=O)CCCN [Sequence 11]
Hemolysis HC10 [1]: 80 µg/mL
Hemolysis HC50 [1]: > 500 µg/mL
MIC, Gram positive E. faecalis [2]: 2.5 µg/mL (≈ 3.75 µM)
MIC, Gram negative E. coli [3]: 10 µg/mL (≈ 15 µM)
MIC, Gram negative P. aeruginosa ([4]; ATCC 27853): 15 µg/mL (≈ 22.5 µM)
MIC, Fungi, C. albicans [5]: 5 µg/mL (≈ 7.51 µM)
MIC, Gram positive S. epidermidis [6]: 2 µg/mL (≈ 3 µM)
MIC, Gram negative K. pneumoniae [7]: 40 µg/mL (≈ 60.1 µM)
MIC, Gram positive B. subtilis [8]: 2 µg/mL (≈ 3 µM)
MIC, Gram positive S. aureus [9]: 5 µg/mL (≈ 7.51 µM)

CCCCCCCC/C=C\CCCCCCCC(=O)N[C@@H](CCCCN)CN(CC(=O)N[C@@H](CCCCN)CN(CC(N)=O)C(=O)CCCN)C(=O)CCCN [Sequence 12]
Hemolysis HC10 [1]: 250 µg/mL
Hemolysis HC50 [1]: > 500 µg/mL
MIC, Gram positive E. faecalis [2]: 5 µg/mL (≈ 6.3 µM)
MIC, Gram negative E. coli [3]: 10 µg/mL (≈ 12.6 µM)
MIC, Gram negative P. aeruginosa ([4]; ATCC 27853): 3 µg/mL (≈ 3.78 µM)
MIC, Fungi, C. albicans [5]: 2 µg/mL (≈ 2.52 µM)
MIC, Gram positive S. epidermidis [6]: 4 µg/mL (≈ 5.04 µM)
MIC, Gram negative K. pneumoniae [7]: 15 µg/mL (≈ 18.9 µM)
MIC, Gram positive B. subtilis [8]: 2.5 µg/mL (≈ 3.15 µM)
MIC, Gram positive S. aureus [9]: 5 µg/mL (≈ 6.3 µM)

CCCCCCCCCCCCCCCC(=O)N[C@@H](C)CN(CC(=O)N[C@@H](CCCCN)CN(CC(=O)N[C@@H](Cc1ccccc1)CN(CC(=O)N[C@@H](Cc1ccccc1)CN(CC(N)=O)C(=O)CCc1c[nH]cn1)C(=O)CCc1c[nH]cn1)C(=O)CCCN)C(C)=O [γAA3]
Hemolysis (H50) [1]: 150 µg/mL
MIC, E. faecalis (vancomycin-resistant) [2]: 1.6 to 3.1 µg/mL
MIC, E. coli [3]: 1.6 to 3.1 µg/mL
MIC, P. aeruginosa ([4]; ATCC 27853): 3 to 6 µg/mL
MIC, Fungi C. albicans [5]: 1.6 to 3.1 µg/mL
MIC, S. epidermidis (multi-drug resistant) [6]: 1.6 to 3.1 µg/mL
MIC, K. pneumoniae (causing pneumonia) [7]: 12.5 to 25 µg/mL
MIC, B. subtilis [8]: 1.6 to 3.1 µg/mL
MIC, S. aureus (methicillin-resistant) [9]: 1.6 to 3.1 µg/mL

NCCCC[C@H]1CN(C(=O)CCc2ccccc2)CC(=O)N[C@@H](CCCCN)CN(C(=O)CCc2ccccc2)CC(=O)N[C@@H](CCCCN)CN(C(=O)CCc2ccccc2)CC(=O)N[C@@H](CCCCN)CN(C(=O)CCc2ccccc2)CC(=O)N[C@@H](CCCCN)CN(C(=O)CCc2ccccc2)CC(=O)N[C@@H](CCCCN)CN(C(=O)CCc2ccccc2)CC(=O)N[C@@H](Cc2ccccc2)CN(CC(N)=O)C(=O)CCC(=O)N1 [HW-B-5]
Hemolysis H10 [1]: > 500 µg/mL
Hemolysis H50 [1]: > 500 µg/mL
MIC, E. faecalis (VREF) ([2]; Table 5): 20 µg/mL (≈ 9.48 µM)
MIC, P. aeruginosa ([4]; ATCC 27853): 18 µg/mL (≈ 8.53 µM)
MIC, Fungus C. albicans [5]: > 50 µg/mL
MIC, S. epidermidis (MRSE) ([6]; Table 5): 8 µg/mL (≈ 3.79 µM)
MIC, K. pneumoniae [7]: > 50 µg/mL
MIC, B. subtilis [8]: 5 µg/mL (≈ 2.37 µM)
MIC, S. aureus (MRSA) ([9]; Table 5): 25-50
